Where a SMILES comes first, the peptide text is derived from it. Bridges are numbered along the chain shown (N, C = ends).
How the values were obtained:
Type in all cases: in vivo, human
[1] = clinical; conditions: human, in vivo; read-out: terminal elimination half-life
[2] = tested on: healthy subjects; assay: clinical
[3] = tested on: patients hospitalized with acute heart failure requiring hemodynamic monitoring; assay: Hemodynamic Monitoring Phase 2a clinical study (Hemo Study, NIL-CDNP-CT003)
Procedure: Another exemplary study using CD-NP was a multi-center, open-label Phase 2a clinical study of CD-NP in patients hospitalized with acute heart failure requiring hemodynamic monitoring (Hemo Study, or NIL-CDNP-CT003). This study considered the efficacy of 8 hours of intravenous administration of CD-NP on changes in cardiac output and pulmonary capillary wedge pressure (PCWP, or wedge pressure).
Stabilized acute heart failure patients requiring hemodynamic monitoring, and receiving standard-of-care heart failure medications (i.e., furosemide infusion), received an initial 8-hour CD-NP infusion followed by a 14-hour washout period, and then a further 8-hour CD-NP infusion. Hemodynamic measurements were collected for an additional 8 hours and safety measurements were collected for a further 2 days.
Patients were enrolled into one of two sequential cohorts (Cohort A and B) which could include up to 10 evaluable patients in each cohort. Cohort A received 8 hours of 3 ng/kg/min CD-NP, followed by a 14 hour wash-out period, and then 8 hours of 10 ng/kg/min CD-NP. Cohort B received 8 hours of 1 ng/kg/min CD-NP, followed by a 14 hour wash-out period, and then 8 hours of 20 ng/kg/min CD-NP.
The first 2 hours, (−2 to 0) represent time before administration of CD-NP. Hours 0 to 38 represent time during the CD-NP dosing regimen discussed above.

[4] = tested on: patients with chronic heart failure; assay: Dosing study (fixed and weight-based dose)
Procedure: In a dosing study, CD-NP was administered to patients with chronic heart failure. The amount of CD-NP administered was either a set amount (in μg/hr) regardless of the patient's weight, or was varied based on the patient's weight.
In FIG. 10a, the steady state average (SS Avg) serum concentration of CD-NP in pg/mL is plotted against patient weight for patients who received low (18 μg/hr) and medium (24 μg/hr) doses of CD-NP.
The placebo group had no significant change in SBP over the course of the study. […] In one aspect, the SBP decrease for doses 24 μg/hr is insufficient to cause a risk of hypotension. […] The weight-based group received a dose that depended on the patients weight. Using PK data, for example the linear fit of data from FIG. 10a, the dose was adjusted to give a predicted serum concentration of 500 pg/mL.
As depicted in FIG. 12, the concentration of CD-NP in serum vs. time after initial dosing for patients on a low dose and a medium dose.

CC[C@H](C)[C@@H]1NC(=O)[C@H](CCCNC(=N)N)NC(=O)[C@H](CC(=O)O)NC(=O)[C@H](CCCCN)NC(=O)[C@H](CC(C)C)NC(=O)CNC(=O)[C@H](Cc2ccccc2)NC(=O)[C@@H](NC(=O)CNC(=O)[C@H](CCCCN)NC(=O)[C@H](CO)NC(=O)[C@H](CC(C)C)NC(=O)CN)CSSC[C@@H](C(=O)N2CCC[C@H]2C(=O)N[C@@H](CO)C(=O)N[C@@H](CC(C)C)C(=O)N[C@@H](CCCNC(=N)N)C(=O)N[C@@H](CC(=O)O)C(=O)N2CCC[C@H]2C(=O)N[C@@H](CCCNC(=N)N)C(=O)N2CCC[C@H]2C(=O)N[C@@H](CC(N)=O)C(=O)N[C@@H](C)C(=O)N2CCC[C@H]2C(=O)N[C@@H](CO)C(=O)N[C@H](C(=O)N[C@@H](CO)C(=O)N[C@@H](C)C(=O)O)[C@@H](C)O)NC(=O)CNC(=O)[C@H](CC(C)C)NC(=O)CNC(=O)[C@H](CO)NC(=O)[C@H](CCSC)NC(=O)[C@H](CO)NC(=O)CNC1=O [CD-NP, cenderitide] (H-GLSKGCFGLKDRIGSMSGLGCPSLRDPRPNAPSTSA-OH; disulfide 6-21; N-terminus and C-terminus assumed)
half-life [1]: 15 to 20 min | orthostatic hypotension immediately after the infusion ([2]; 17.5 ng/kg/min, vs placebo arm): more events were observed in the CD-NP arm | subjects with symptomatic hypotension in association with orthostatic challenge immediately post-infusion ([2]; 25 ng/kg/min): two out of four | symptomatic hypotension during CD-NP dosing ([2]; during dosing): did not induce symptomatic hypotension | maximum tolerated dose (MTD) ([2]; healthy subjects, 10, 17.5 and 25 ng/kg/min tested): 17.5 ng/kg/min | time to steady state of natriuretic peptide ([2]; infusion): 1 to 2 h | SBP below 90 mmHg ([3]; 20 ng/kg/min, 8 h infusion, FIG. 4b): one patient had a transient dip in SBP below 90 mmHg | well tolerated dose ([3]; previous studies, co-administered with furosemide to stabilized heart failure patients): up to 20 ng/kg/min | area under the curve (AUC) vs patient weight ([4]; FIG. 10b): decreases with increasing patient weight | change in SBP ([4]; high dose 36 μg/hr (600 ng/min)): decrease in SBP that could possibly cause hypotension | steady state average (SS Avg) serum concentration vs patient weight ([4]; low (18 μg/hr) and medium (24 μg/hr) doses, FIG. 10a): decreases with increasing patient weight
